In article PMC10457970, “HIV-1 Integrase Inhibition Activity by Spiroketals Derived from Plagius flosculosus, an Endemic Plant of Sardinia (Italy) and Corsica (France)” (Pharmaceuticals, 2023):
Several values for one entry are separate records, joined by “and”; a condition that tells them apart may be missing. Equal entries are not always repeated.

Key:
[1] = Compound UV–VIS spectra in the presence of MgCl2 (chelation); format: physicochemical; conditions: 6 mM MgCl2, UV–VIS 250–600 nm
Experimental: The ability of compounds to chelate the MgCl2 was measured using 15% ethanol and 15 mM Tris HCl pH 7.8 (in 1 mL of volume). The UV–VIS spectrum was recorded, before and after the addition of 6 mM MgCl2, from 250 nm to 600 nm.

[2] = Cytotoxicity, CellTiter-Glo 2.0; format: cell-based; conditions: human, TZM-bl cells
Experimental: (§1) Cytotoxicity was determined by the CellTiter-Glo 2.0 Luminescent Cell Viability Assay (Promega) according to the manufacturer’s protocol. Briefly, 15,000 cells/well of Tzm-bl were exposed to serial diluition of the drug and after 48 h, cell viability was calculated by measuring cellular ATP through a luciferase-based chemical reaction. The luminescent signal obtained from cells treated with serial dilution of the tested compounds, or the control (DMSO), was measured using the GloMax® Discover Multimode Microplate Reader (Promega) and processed with GraphPad PRISM software to calculate the half-maximal cytotoxic concentration (CC50). The DMSO curve, used as a control, was added in each plate and SPK-3 was tested in duplicate. The non-toxic dose corresponding to 90–100% cell viability was used as the maximum concentration in the antiviral assays.

[3] = test system: HIV-1 wild-type reference strain NL4-3; assay: Anti-HIV-1 activity in TZM-bl cell line; format: cell-based; conditions: 48 h
Experimental: The antiviral activity of the investigated compound was evaluated by measuring the IC50 values against the HIV-1 wild-type reference strain NL4-3 in a TZM-bl cell line-based phenotypic assay, as previously published. Briefly, 15,000 cells/well were infected with the wild-type NL4-3 strain at multiplicity of infection (MOI) of 0.1 in the presence of serial diluitions of the drug in a 96-well plate format. […] Each compound was tested in duplicate and tested in two independent experiments. After 48 h, the cells were detached with the Glo-Lysis buffer (Promega, Madison, WI, USA), and the Bright-Glo Luciferase reagent (Promega) was added to each well as indicated by the manufacturer. Finally, the relative luminescence units were measured using the GloMax Discover instrument (Promega) as previously described and processed with GraphPad software to calculate half-maximal inhibitory concentration (IC50) values.

[4] = molecular target: T1, HIV-1 RT-associated RNase H (Human immunodeficiency virus type 1 group M subtype B, UniProt P04585); assay: RT-associated RNase H assay; format: biochemical; conditions: pure compounds; mean ± SD of three independent experiments
T1 construct: His-tagged p66/p51 HIV-1 RT was expressed in E. coli strain M15; His; made in house; host or cells: Escherichia coli M15
Experimental: (§2) Recombinant 6xHis IN protein, FLAG-IN, His-LEDGF and FLAG-LEDGF were expressed in Escherichia coli strain BL21 (DE3) and purified as previously described. His-tagged p66/p51 HIV-1 RT was expressed in E. coli strain M15 and purified as previously described.
The HIV-1 RNase H activity was determined as described by Esposito et al.. Briefly, 100 µL of volume of reaction containing 50 mM Tris HCl pH 7.8, 6 mM MgCl2, 1 mM DTT, 80 mM KCl, hybrid RNA/DNA (5′-[…]-3′-Fluorescein, 5′-[…]-3′-Dabcyl), and 3.8 nM RT was incubated for 1 h at 37 °C. The reaction was stopped by the addition of EDTA and measured with a plate reader at 490/528 nm.

[5] = molecular target: T2, HIV-1 IN in the presence of LEDGF/p75 cellular cofactor (Human immunodeficiency virus type 1 group M subtype B, UniProt P04585); assay: HTRF LEDGF-dependent HIV-1 IN activity assay; format: biochemical; conditions: pure compounds; mean ± SD of three independent experiments
T2 construct: Recombinant 6xHis IN protein, FLAG-IN, His-LEDGF and FLAG-LEDGF were expressed in Escherichia coli strain BL21 (DE3); made in house; host or cells: Escherichia coli BL21 (DE3)
Experimental: as §2
(§3) The evalaution of 3′-processing and strand-transfer IN reactions in the presence or in the absence of recombinant LEDGF/p75 cellular cofactor were performed as described previously. Briefly, recombinant IN was pre-incubated for 1 h at room temperature, in a buffer containing 20 mM HEPES pH 7.5, 1 mM DTT, 1% Glycerol, 20 mM MgCl2, 0.05% Brij-35 and 0.1 mg/mL BSA and increasing concentrations of the tested compounds.
(§4) Then, 9 nM Biotin3′-DNA donor substrate 50 nM 5′-Cy5-DNA acceptor substrate and 50 nM LEDGF/p75 protein (when required) were added to this reaction and incubated at 37 °C for 90 min.

[6] = test system: TZM-bl cells; assay: Cytotoxicity, CellTiter-Glo 2.0; format: cell-based; conditions: 48 h
Experimental: as §1

[7] = molecular target: HIV-1 IN–IN subunit exchange (Human immunodeficiency virus type 1 group M subtype B, UniProt P04585); assay: biochemical; format: binding
Experimental: (§5) This IN–IN binding assay allows the verification of higher-order, aberrant IN multimerization or IN–IN subunit exchange. Briefly, His and FLAG-tagged IN enzymes were added in a buffer containing 25 mM Tris pH 7.4, 150 mM NaCl, 2 mM MgCl2, 0.1% Nonidet P-40, and 1 mg/mL BSA [12, 48] with different concentrations of compounds, and incubated for 2.5 h at room temperature. After this time, a mixture of two specific antibodies (anti-His6-XL665 and anti-FLAG-EuCryptate) was added to the reaction and incubated at room temperature for 3 h. The HTRF signal was recorded as described in the previous paragraph.
(§6) The analysis of the signal in order to evaluate the aberrant IN multimerization and interference with the IN–IN subunit exchange or functional IN–IN interactions was performed as described above.

[8] = test system: T3, HIV-1 IN multimerization; format: binding; conditions: concentration for 50% of the multimerization increase
T3 construct: His and FLAG-tagged IN enzymes were added in a buffer containing 25 mM Tris pH 7.4; made in house; host or cells: Escherichia coli BL21 (DE3)
Experimental: as §5, §6

[9] = molecular target: HIV-1 IN–LEDGF interaction (Human immunodeficiency virus type 1 group M subtype B, UniProt P04585); assay: biochemical; format: binding
Experimental: Recombinant His-IN was pre-incubated for 30 min at room temperature in the presence of the tested compounds in a mixture reaction composed of 150 mM NaCl, 2 mM MgCl2, 0.1% Nonidet P-40, 1 mg/mL BSA, and 25 mM Tris pH 7.4 [12, 48]. After this time, FLAG-LEDGF was added and the mixture was incubated for 30 min at room temperature. A mixture of two specific antibodies (anti-His6-XL665 and anti-FLAG-EuCryptate) was then added to the reaction and incubated for 4 h at 4 °C.

[10] = molecular target: T4, HIV-1 IN in the absence of LEDGF (Human immunodeficiency virus type 1 group M subtype B, UniProt P04585); assay: biochemical; format: biochemical
T4 construct: Recombinant 6xHis IN protein, FLAG-IN, His-LEDGF and FLAG-LEDGF were expressed in Escherichia coli strain BL21 (DE3); made in house; host or cells: Escherichia coli BL21 (DE3)
Experimental: as §2, §3, §4

Compound | shift in the maximum of absorbance in the presence of Mg2+ [1] [nm] | CC50 at 48 h [2] [µM] | IC50 [4] [µM] | IC50 [5] [µM] | also measured
CCOC(=O)C(=O)CC(=O)/C=C/c1cccn1Cc1ccc(F)cc1 [RDS1643, reference compound] | 16 |  |  |  | 
Cc1nnc(C(=O)NC(C)(C)c2nc(C(=O)NCc3ccc(F)cc3)c(O)c(=O)n2C)o1 [Raltegravir, reference compound] |  | > 100 |  |  | EC50 ([3]; Human immunodeficiency virus 1, NL43, TZM-bl, read-out: EC50 inhibiting HIV-1 viral replication): 0.0087 µM
CC#CC#C/C=C1\C=CC2(CCCO2)O1 (stereo not shown) [SPK1, tonghaosu] | 3.5 |  | 10 ± 5.4 | 1.69 ± 0.38 | 
CC#CC#C/C=C1\C=CC2(OC=CC2OC(C)=O)O1 (stereo not shown) [SPK2] | 4.5 |  | 20 ± 6.1 | 14.7 ± 0.3 | 
CC#CC#C/C=C1/O[C@@]2(OC=C[C@H]2OC(C)=O)[C@@H](O)[C@@H]1Cl [SPK3, flosculin A] | 3 | 50 | 3.6 ± 0.6 | 1.46 ± 0.16 | CC50 [6]: 50.1 ± 4.3 µM; IC50 [7]: > 100 µM; IN–IN Subunit Exchange IC50 [7]: without any effect; IN Multimerization MI50 [8]: 1 µM and 1.00 ± 0.01 µM; EC50 inhibiting HIV-1 viral replication ([3]; NL4-3, TZM-bl, two independent experiments): did not inhibit; IN–LEDGF Binding IC50 [9]: did not inhibit; IC50 ([9]; read-out: IN–LEDGF Binding IC50): > 100 µM; IC50 ([10]; absence of LEDGF, read-out: LEDGF-Independent IN Activity IC50): 27.3 ± 2.3 µM; decrease in potency on HIV-1 IN in the absence vs presence of LEDGF/p75 ([10]; ratio LEDGF-independent / LEDGF-dependent IC50): 18.7 fold
